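Briefly, cells in 96-well plates were exposed to five compound concentrations for 48 h, and endpoints were estimated by linear interpolation. TGI denotes the concentration required for complete inhibition of growth.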
Legend:
Assay in all cases: NCI tumour cell line growth inhibition, 48 h
[1] = system: 786-0 renal
[2] = system: A498 renal
[3] = system: A549 NSCLC
[4] = system: ACHN renal
[5] = system: CAKI-1 renal
[6] = system: CCRF-CEM leukemia
[7] = system: COLO 205 colon
[8] = system: DU-145 prostate
[9] = system: EKVX NSCLC
[10] = system: HCC-2998 colon
[11] = system: HCT-116 colon
[12] = system: HCT-15 colon
[13] = system: HOP-62 NSCLC
[14] = system: HOP-92 NSCLC
[15] = system: HS 578T breast
[16] = system: HT29 colon
[17] = system: IGROV1 ovarian
[18] = system: K-562 leukemia
[19] = system: KM12 colon
[20] = system: LOX IMVI melanoma
[21] = system: M14 melanoma
[22] = system: MALME-3M melanoma
[23] = system: MCF7 breast
[24] = system: MDA-MB-231 breast
[25] = system: MDA-MB-435
[26] = system: MDA-N
[27] = system: MOLT-4 leukemia
[28] = system: NCI-H226 lung
[29] = system: NCI-H23 lung
[30] = system: NCI-H460 lung
[31] = system: NCI-H522 lung
[32] = system: NCI/ADR-RES ovarian
[33] = system: OVCAR-3 ovarian
[34] = system: OVCAR-4 ovarian
[35] = system: OVCAR-5 ovarian
[36] = system: OVCAR-8 ovarian
[37] = system: PC-3 prostate
[38] = system: RPMI-8226 leukemia
[39] = system: RXF 393 renal
[40] = system: SF-268 CNS
[41] = system: SF-295 CNS
[42] = system: SF-539 CNS
[43] = system: SK-MEL-2 melanoma
[44] = system: SK-MEL-28 melanoma
[45] = system: SK-MEL-5 melanoma
[46] = system: SK-OV-3 ovarian
[47] = system: SN12C renal
[48] = system: SNB-19 CNS
[49] = system: SNB-75 CNS
[50] = system: SW-620 colon
[51] = system: T-47D breast
[52] = system: TK-10 renal
[53] = system: U251 CNS
[54] = system: UACC-257 melanoma
[55] = system: UACC-62 melanoma
[56] = system: UO-31 renal
[57] = system: HL-60(TB) leukemia
[58] = system: SR leukemia

In the case of `Clc1ccc(C2ON=C(c3ccccc3)N2C23CC4CC(CC(C4)C2)C3)c(Cl)c1` (stereo unspecified), the TGI [1] is reported as over 10 µM, the TGI [2] is reported as over 10 µM and the TGI [3] is reported as over 10 µM. For the same compound, the TGI [4] was over 10 µM, the TGI [5] was over 10 µM and the TGI [6] was over 10 µM. The TGI [7] was over 10 µM, the TGI [8] was over 10 µM and the TGI [9] was over 10 µM. It also gave a TGI [10] of over 10 µM, a TGI [11] of over 10 µM and a TGI [12] of over 10 µM. The TGI [13] was over 10 µM, the TGI [14] was over 10 µM and the TGI [15] was over 10 µM. For the same compound, the TGI [16] was over 10 µM, the TGI [17] was over 10 µM and the TGI [18] was over 10 µM. For the same compound, the TGI [19] was over 10 µM, the TGI [20] was over 10 µM and the TGI [21] was over 10 µM. It also gave a TGI [22] of over 10 µM, a TGI [23] of over 10 µM and a TGI [24] of over 10 µM. The TGI [25] was over 10 µM, the TGI [26] was over 10 µM and the TGI [27] was over 10 µM. The TGI [28] was over 10 µM, the TGI [29] was over 10 µM and the TGI [30] was over 10 µM. For the same compound, the TGI [31] was over 10 µM, the TGI [32] was over 10 µM and the TGI [33] was over 10 µM. For the same compound, the TGI [34] was over 10 µM, the TGI [35] was over 10 µM and the TGI [36] was over 10 µM. For the same compound, the TGI [37] was over 10 µM, the TGI [38] was over 10 µM and the TGI [39] was over 10 µM. The TGI [40] was over 10 µM, the TGI [41] was over 10 µM and the TGI [42] was over 10 µM. It also gave a TGI [43] of over 10 µM, a TGI [44] of over 10 µM and a TGI [45] of over 10 µM. For the same compound, the TGI [46] was over 10 µM, the TGI [47] was over 10 µM and the TGI [48] was over 10 µM. The TGI [49] was over 10 µM, the TGI [50] was over 10 µM and the TGI [51] was over 10 µM. For the same compound, the TGI [52] was over 10 µM, the TGI [53] was over 10 µM and the TGI [54] was over 10 µM. For the same compound, the TGI [55] was over 10 µM and the TGI [56] was over 10 µM.
For `COc1ccccc1-c1cc(=O)c2ccccc2n1C1CC1`, the TGI [1] was 15.3 µM, the TGI [3] was 12.8 µM and the TGI [4] was 5.78 µM. For the same compound, the TGI [5] was 14.1 µM, the TGI [6] was 56.1 µM and the TGI [7] was 11.1 µM. It also gave a TGI [8] of 14.4 µM, a TGI [11] of 10.4 µM and a TGI [12] of 12.2 µM. The TGI [57] was 35.5 µM, the TGI [13] was 15.4 µM and the TGI [14] was 19.8 µM. For the same compound, the TGI [15] was 25.7 µM, the TGI [16] was 4.37 µM and the TGI [17] was 44 µM. The TGI [18] was over 100 µM, the TGI [19] was 12 µM and the TGI [20] was 15.5 µM. The TGI [21] was 16.2 µM, the TGI [23] was 18.7 µM and the TGI [24] was 16 µM. The TGI [25] was 12.5 µM, the TGI [26] was 18 µM and the TGI [27] was 45.9 µM. The TGI [28] was 15 µM, the TGI [29] was 22.8 µM and the TGI [30] was 15.7 µM. The TGI [31] was 5.63 µM, the TGI [32] was 31.3 µM and the TGI [33] was 11 µM. For the same compound, the TGI [35] was 14.2 µM, the TGI [36] was 18.1 µM and the TGI [37] was 27.8 µM. It also gave a TGI [38] of 5.64 µM, a TGI [39] of 6.62 µM and a TGI [40] of 20.5 µM. For the same compound, the TGI [41] was 7.99 µM, the TGI [42] was 16.5 µM and the TGI [43] was 8.07 µM. For the same compound, the TGI [45] was 14.8 µM, the TGI [46] was 41.1 µM and the TGI [47] was 19.5 µM. For the same compound, the TGI [48] was 34.3 µM, the TGI [58] was 18.7 µM and the TGI [50] was 15.8 µM. It also gave a TGI [51] of 9.73 µM, a TGI [53] of 14.2 µM and a TGI [54] of 26.6 µM. It also gave a TGI [55] of 11.5 µM and a TGI [56] of 19 µM.

Source: PubChem BioAssay (NCI)
